Test results published in paper PMC6877352, “Modifying the Siderophore Triacetylfusarinine C for Molecular Imaging of Fungal Infection” (Molecular imaging and biology, 2019).

Columns and labels:
[1] = test system: A. fumigatus mutant strain ΔsidA/ΔftrA; assay: Siderophore utilization growth assay; type: cell-based, Aspergillus fumigatus; settings: 37 °C; for degree of utilization / growth support by [Fe]siderophore: 0.1-100 μM [Fe]siderophore in AMM; for concentration of [Fe]siderophore at which growth was supported: 48 h incubation
Excerpt: For siderophore utilization growth assays, A. fumigatus mutant strain ΔsidA/ΔftrA [7], which can grow only in the presence of externally added iron-siderophores or at high iron concentrations, was used. The fungal strain was inoculated in iron-deficient culture as described above.
To investigate the ability or inability of A. fumigatus to take up and utilize [Fe]siderophores as iron source, a growth assay with the A. fumigatus mutant strain ΔsidA/ΔftrA was employed. In a 24-well plate, aliquots of 10^3 conidia of mutant strain were point inoculated on 1 ml of AMM containing 0.1, 1, 10, 50, or 100 μM of [Fe]siderophore and incubated at 37 °C for 48 h. For the control, fungi were grown in iron-limited AMM without adding [Fe]siderophore.

[2] = test system: A. fumigatus wildtype (ATCC46645); assay: In vitro uptake assay in A. fumigatus; type: cell-based, Aspergillus fumigatus; settings: iron-starvation condition, 45 min, normalized to [^68Ga]TAFC uptake from the same experiment, n = 3
Procedure: For in vitro uptake studies, A. fumigatus wildtype (ATCC46645) was used. Fungal strain was cultured at 37 °C in Aspergillus minimal medium (AMM) containing 1 % (m/v) glucose as carbon source, 20 mM glutamine as nitrogen source, salts, and trace elements. Iron-sufficient media were prepared by adding FeSO4 to a final concentration of 30 μM. For iron-deficient conditions, supplementation of iron was omitted. Iron starvation was verified by the detection of extracellular siderophore production which is suppressed by iron supplementation.
Uptake assays were performed in either iron-deficient or iron-sufficient A. fumigatus wildtype cultures. In a 96-well MultiScreen Filter Plates HTS (1 μm glass fiber filter, Merck Millipore, Darmstadt, Germany), 180 μl of A. fumigatus suspended in iron-replete or iron-depleted medium was added. [^68Ga]siderophores (approx. 1 × 10^5 cpm, 80 nM) were incubated with either PBS pH 7.4 (total series) or blocking solution (10 μM [Fe]TAFC) (non-specific series) at RT for 45 min in quadriplicates. The incubation was interrupted by suction of the medium and the plate was washed twice with ice-cold TRIS-buffered saline (10 mM, pH 7.3). The filters were isolated and the remaining activities were measured in the gamma counter. The uptake was calculated as % uptake of total activity added; each assay was repeated three times. To normalize uptake variations between different fungal cultures, the uptake of each [^68Ga]siderophore was expressed as the ratio to [^68Ga]TAFC uptake from the same experiment. The mean values of three different assays were used to quantitatively compare the difference in uptake between the compounds.

Compound	degree of utilization / growth support by [Fe]siderophore ([1]; 48 h)	concentration of [Fe]siderophore at which growth was supported [1]	uptake ratio to [^68Ga]TAFC [2]	other results
CCC(=O)NC1CCCN([O-])C(=O)C=C(C)CCOC(=O)C(NC(C)=O)CCCN([O-])C(=O)C=C(C)CCOC(=O)C(NC(C)=O)CCCN([O-])C(=O)C=C(C)CCOC1=O.[Fe+3] (stereo not drawn) [[Fe]DAPFC, propanoyl[Fe]DAFC]	Medium degree	–	–	–
CC1=CC(=O)N([O-])CCCC(NC(=O)CCC(=O)O)C(=O)OCCC(C)=CC(=O)N([O-])CCCC(NC(=O)CCC(=O)O)C(=O)OCCC(C)=CC(=O)N([O-])CCCC(NC(=O)CCC(=O)O)C(=O)OCC1.[Fe+3] (stereo not drawn) [[Fe]FSC(suc)3, trisuccinyl[Fe]FSC]	lowest level of growth	–	–	growth at 50 μM [Fe]siderophore ([1]; 50 μM, 48 h): no growth; growth at 100 μM [Fe]siderophore ([1]; 100 μM, 48 h): sporulation defect
CC(=O)NC1CCCN([O-])C(=O)C=C(C)CCOC(=O)C(NC(C)=O)CCCN([O-])C(=O)C=C(C)CCOC(=O)C(N)CCCN([O-])C(=O)C=C(C)CCOC1=O.[Fe+3] (stereo not drawn) [[Fe]DAFC, diacetyl[Fe]FSC]	–	0.1 µM	–	–
CC1=CC(=O)N(O)CCCC(NC(=O)CN)C(=O)OCCC(C)=CC(=O)N(O)CCCC(NC(=O)CN)C(=O)OCCC(C)=CC(=O)N(O)CCCC(NC(=O)CN)C(=O)OCC1 (stereo not drawn) (68Ga complex, metal not drawn) [FSC(gly)3]	–	–	0.01	uptake ratio to [^68Ga]TAFC ([2]; listed as [^68Ga]FSC(gly)3): less than 0.05
tributanoyl[Fe]FSC [[Fe]TBuFC]	Medium degree	–	–	–
CC(=O)NC1CCCN(O)C(=O)C=C(C)CCOC(=O)C(NC(=O)CN)CCCN(O)C(=O)C=C(C)CCOC(=O)C(NC(=O)CN)CCCN(O)C(=O)C=C(C)CCOC1=O (stereo not drawn) (68Ga complex, metal not drawn) [MAFC(gly)2]	–	–	0.03	uptake ratio to [^68Ga]TAFC ([2]; listed as [^68Ga]MAFC(gly)2): less than 0.05
CC(=O)NC1CCCN(O)C(=O)C=C(C)CCOC(=O)C(NC(=O)CN)CCCN(O)C(=O)C=C(C)CCOC(=O)C(NC(C)=O)CCCN(O)C(=O)C=C(C)CCOC1=O (stereo not drawn) (68Ga complex, metal not drawn) [DAFC(gly)]	–	–	0.89	uptake ratio to [^68Ga]TAFC ([2]; listed as [^68Ga]DAFC(gly)): around 1
CC(=O)NC1CCCN([O-])C(=O)C=C(C)CCOC(=O)C(NC(=O)CCC(=O)O)CCCN([O-])C(=O)C=C(C)CCOC(=O)C(NC(C)=O)CCCN([O-])C(=O)C=C(C)CCOC1=O.[Fe+3] (stereo not drawn) [[Fe]DAFC(suc), succinyl[Fe]DAFC]	low degree	1 µM	–	–
CCC(=O)NC1CCCN([O-])C(=O)C=C(C)CCOC(=O)C(NC(=O)CC)CCCN([O-])C(=O)C=C(C)CCOC(=O)C(NC(=O)CC)CCCN([O-])C(=O)C=C(C)CCOC1=O.[Fe+3] (stereo not drawn) [[Fe]TPFC, tripropanoyl[Fe]FSC]	Medium degree	–	–	–
CC(=O)N[C@H]1CCCN(O)C(=[OH+])/C=C(/C)CCOC(=O)[C@@H](NC(C)=O)CCCN(O)C(=[OH+])/C=C(/C)CCOC(=O)[C@@H](NC(C)=O)CCCN(O)C(=[OH+])/C=C(/C)CCOC1=O.[Fe] [[Fe]TAFC, triacetyl[Fe]FSC, reference compound]	Medium degree	–	–	–
CC(=O)NC1CCCN([O-])C(=O)C=C(C)CCOC(=O)C(NC(=O)CN)CCCN([O-])C(=O)C=C(C)CCOC(=O)C(NC(=O)CN)CCCN([O-])C(=O)C=C(C)CCOC1=O.[Fe+3] (stereo not drawn) [[Fe]MAFC(gly)2, diglycyl[Fe]MAFC]	low degree	1 µM	–	–
CC(=O)NC1CCCN([O-])C(=O)C=C(C)CCOC(=O)C(NC(=O)CCC(=O)O)CCCN([O-])C(=O)C=C(C)CCOC(=O)C(NC(=O)CCC(=O)O)CCCN([O-])C(=O)C=C(C)CCOC1=O.[Fe+3] (stereo not drawn) [[Fe]MAFC(suc)2, disuccinyl[Fe]MAFC]	low degree	1 µM	–	–
CC(=O)NC1CCCN(O)C(=O)C=C(C)CCOC(=O)C(NC(=O)CCC(=O)O)CCCN(O)C(=O)C=C(C)CCOC(=O)C(NC(=O)CCC(=O)O)CCCN(O)C(=O)C=C(C)CCOC1=O (stereo not drawn) (68Ga complex, metal not drawn) [MAFC(suc)2]	–	–	0.04	uptake ratio to [^68Ga]TAFC ([2]; listed as [^68Ga]MAFC(suc)2): less than 0.05
CC1=CC(=O)N([O-])CCCC(N)C(=O)OCCC(C)=CC(=O)N([O-])CCCC(N)C(=O)OCCC(C)=CC(=O)N([O-])CCCC(N)C(=O)OCC1.[Fe+3] (stereo not drawn) [[Fe]FSC, [Fe]fusarinine C, reference compound]	–	0.1 µM	–	–
CCC(=O)NC1CCCN(O)C(=O)C=C(C)CCOC(=O)C(NC(C)=O)CCCN(O)C(=O)C=C(C)CCOC(=O)C(NC(C)=O)CCCN(O)C(=O)C=C(C)CCOC1=O (stereo not drawn) (68Ga complex, metal not drawn) [DAPFC]	–	–	0.99	uptake ratio to [^68Ga]TAFC ([2]; listed as [^68Ga]DAPFC): around 1
CC(=O)NC1CCCN(O)C(=O)C=C(C)CCOC(=O)C(N)CCCN(O)C(=O)C=C(C)CCOC(=O)C(N)CCCN(O)C(=O)C=C(C)CCOC1=O (stereo not drawn) (68Ga complex, metal not drawn) [MAFC]	–	–	0.26	–
CC(=O)NC1CCCN([O-])C(=O)C=C(C)CCOC(=O)C(NC(=O)c2ccccc2)CCCN([O-])C(=O)C=C(C)CCOC(=O)C(NC(C)=O)CCCN([O-])C(=O)C=C(C)CCOC1=O.[Fe+3] (stereo not drawn) [[Fe]DABzFC, benzoyl[Fe]DAFC]	Medium degree	–	–	–
CC(=O)NC1CCCN(O)C(=O)C=C(C)CCOC(=O)C(NC(=O)c2ccccc2)CCCN(O)C(=O)C=C(C)CCOC(=O)C(NC(C)=O)CCCN(O)C(=O)C=C(C)CCOC1=O (stereo not drawn) (68Ga complex, metal not drawn) [DABzFC]	–	–	0.53	–
CC(=O)NC1CCCN(O)C(=O)C=C(C)CCOC(=O)C(NC(=O)CCC(=O)O)CCCN(O)C(=O)C=C(C)CCOC(=O)C(NC(C)=O)CCCN(O)C(=O)C=C(C)CCOC1=O (stereo not drawn) (68Ga complex, metal not drawn) [DAFC(suc)]	–	–	0.33	–
CC(=O)NC1CCCN([O-])C(=O)C=C(C)CCOC(=O)C(N)CCCN([O-])C(=O)C=C(C)CCOC(=O)C(N)CCCN([O-])C(=O)C=C(C)CCOC1=O.[Fe+3] (stereo not drawn) [[Fe]MAFC, acetyl[Fe]FSC]	–	0.1 µM	–	–
CC1=CC(=O)N([O-])CCCC(NC(=O)CN)C(=O)OCCC(C)=CC(=O)N([O-])CCCC(NC(=O)CN)C(=O)OCCC(C)=CC(=O)N([O-])CCCC(NC(=O)CN)C(=O)OCC1.[Fe+3] (stereo not drawn) [[Fe]FSC(gly)3, triglycyl[Fe]FSC]	low degree	1 µM	–	–
CC(=O)NC1CCCN([O-])C(=O)C=C(C)CCOC(=O)C(NC(=O)CN)CCCN([O-])C(=O)C=C(C)CCOC(=O)C(NC(C)=O)CCCN([O-])C(=O)C=C(C)CCOC1=O.[Fe+3] (stereo not drawn) [[Fe]DAFC(gly), glycyl[Fe]DAFC]	low degree	1 µM	–	–
CC(=O)NC1CCCN(O)C(=O)C=C(C)CCOC(=O)C(NC(C)=O)CCCN(O)C(=O)C=C(C)CCOC(=O)C(N)CCCN(O)C(=O)C=C(C)CCOC1=O (stereo not drawn) (68Ga complex, metal not drawn) [DAFC]	–	–	0.56	–
CCCC(=O)NC1CCCN([O-])C(=O)C=C(C)CCOC(=O)C(NC(C)=O)CCCN([O-])C(=O)C=C(C)CCOC(=O)C(NC(C)=O)CCCN([O-])C(=O)C=C(C)CCOC1=O.[Fe+3] (stereo not drawn) [[Fe]DABuFC, butanoyl[Fe]DAFC]	Medium degree	–	–	–
